Experiment [1] addresses T1, human sphingosine-1-phosphate receptor 1 (S1P1) (Homo sapiens (Human), UniProt P21453). Briefly: Inhibition of cAMP production (HTRF cAMP HiRange), S1P1 CHO-K1 cells. It counts as cell-based. The following applies: for Emax: CHO-K1, efficacy (SPAN) normalized to fingolimod, read-out: hS1P1 cAMP SPAN. In outline:
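CHO-K1 cells stably co-expressing human S1P1 (C-terminal Prolink tag) and EA-β-arrestin2 were grown in AssayComplete Media 6 at 37° C. and 5% CO2, plated, and incubated overnight. Agonist-driven inhibition of intracellular cAMP was read by TR-FRET with the HTRF cAMP HiRange kit on a PheraStar reader. Potency is pEC50, and efficacy (SPAN) is normalized to fingolimod.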
For orientation: Cyclic AMP is a second messenger, typically raised through Gs and lowered through Gi signalling.
Target sequence in this assay (P21453 whole entry, looked up): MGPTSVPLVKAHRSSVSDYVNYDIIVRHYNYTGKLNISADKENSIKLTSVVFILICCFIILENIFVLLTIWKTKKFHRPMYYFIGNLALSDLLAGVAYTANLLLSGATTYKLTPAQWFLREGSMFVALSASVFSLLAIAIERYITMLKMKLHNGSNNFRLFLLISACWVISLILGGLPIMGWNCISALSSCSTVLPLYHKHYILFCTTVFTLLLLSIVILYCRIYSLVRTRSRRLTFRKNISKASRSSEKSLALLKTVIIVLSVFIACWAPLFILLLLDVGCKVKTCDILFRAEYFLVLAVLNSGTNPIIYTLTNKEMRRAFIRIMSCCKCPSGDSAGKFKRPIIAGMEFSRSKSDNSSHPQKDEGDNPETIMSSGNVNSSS

Experiment [2] addresses T1, human sphingosine-1-phosphate receptor 1 (S1P1). Briefly: β-Arrestin2 recruitment assay (PathHunter), S1P1 CHO-K1 cells. The experiment is classed as cell-based. The following applies: for Emax: CHO-K1, efficacy (SPAN) normalized to fingolimod, read-out: hS1P1 B-arrestin2 SPAN. In outline: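 Enzyme-fragment complementation read-out: agonist-driven β-arrestin2 binding to ProLink-tagged human S1P1 in stable CHO-K1 cells restores β-galactosidase, measured 1 h at room temperature after a 60 min 37° C. compound incubation. Potency as pEC50, efficacy relative to fingolimod (SPAN).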
Target sequence in this assay (P21453 whole entry, looked up): as above
Target sequence in this assay (P32121 whole entry partner, looked up): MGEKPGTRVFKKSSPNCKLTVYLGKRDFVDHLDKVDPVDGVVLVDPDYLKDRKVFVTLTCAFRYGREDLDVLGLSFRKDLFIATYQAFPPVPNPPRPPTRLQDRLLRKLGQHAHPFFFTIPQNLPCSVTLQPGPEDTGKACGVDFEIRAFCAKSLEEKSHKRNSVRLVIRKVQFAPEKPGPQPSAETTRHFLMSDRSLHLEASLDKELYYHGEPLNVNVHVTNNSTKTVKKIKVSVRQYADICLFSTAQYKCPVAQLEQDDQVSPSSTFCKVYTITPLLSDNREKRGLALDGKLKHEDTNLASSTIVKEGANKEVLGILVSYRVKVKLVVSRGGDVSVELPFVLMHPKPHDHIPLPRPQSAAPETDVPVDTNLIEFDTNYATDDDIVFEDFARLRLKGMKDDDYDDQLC

Where [3] appears, read: inhibition of cAMP production, S1P1 CHO-K1 cells.
Setting [4] is: β-arrestin2 recruitment, S1P1 CHO-K1 cells.

Experimental findings from patent US11912693B2, “Compounds for modulating S1P1 activity and methods of using the same” (TREVENA, INC., priority 2017, dated 2024) are described below.

SMILES strings stand for the structures. Some results are limits rather than exact numbers.

`CCC1(CC)CC(=O)c2cc(-c3nnc(-c4ccc5c(c4)nnn5C(C)C)s3)ccc2O1` [Compound 67, 2,2-diethyl-6-(5-(1-isopropyl-1H-benzo[d][1,2,3]triazol-5-yl)-1,3,4-thiadiazol-2-yl)chroman-4-one]: the Emax was above 75% in experiment [1] and below 75% in experiment [2]. The “hS1P1 cAMP pEC50” value in experiment [1] (setting [3]) was below 6.5. In addition, the “hS1P1 B-arrestin2 pEC50” value in experiment [2] (setting [4]) is above 5.
The matching figures for `CCC1(CC)CC(=O)c2cc(-c3nc(-c4ccc(Cl)cc4)no3)ccc2O1` [Compound 68, 6-[3-(4-chlorophenyl)-1,2,4-oxadiazol-5-yl]-2,2-diethyl-chroman-4-one]: below 75%, below 75%, below 6.5 and below 5.
Taken in the same sequence, the figures for `COc1ccc(-c2nc(-c3ccc4c(c3)nnn4C(C)C)no2)cc1` [Compound 69, 3-(1-isopropylbenzotriazol-5-yl)-5-(4-methoxyphenyl)-1,2,4-oxadiazole] were below 75%, below 75%, below 6.5 and above 5.
`CC(C)n1nnc2cc(-c3nnc(-c4ccccc4O)s3)ccc21` [Compound 70, 2-{5-[1-(propan-2-yl)-1H-1,2,3-benzotriazol-5-yl]-1,3,4-thiadiazol-2-yl}phenol]: the Emax in experiment [1] and in experiment [2] was below 75% each time. The “hS1P1 cAMP pEC50” value in experiment [1] (setting [3]) is reported as above 6.5. Besides, the “hS1P1 B-arrestin2 pEC50” value in experiment [2] (setting [4]) is above 5.
Turning to `CCC1(CC)CC(=O)c2cc(-c3nc(-c4cccc(OC)c4)no3)ccc2O1` [Compound 71, 2,2-diethyl-6-(3-(3-methoxyphenyl)-1,2,4-oxadiazol-5-yl)chroman-4-one], the Emax is above 75% in experiment [1] and below 75% in experiment [2]. Further, the “hS1P1 cAMP pEC50” value in experiment [1] (setting [3]) is recorded as below 6.5. The “hS1P1 B-arrestin2 pEC50” value in experiment [2] (setting [4]) is recorded as below 5.
The matching figures for `CCC1(CC)CC(=O)c2cc(-c3nc(-c4ccc(O)cc4)no3)ccc2O1` [Compound 72, 2,2-diethyl-6-[3-(4-hydroxyphenyl)-1,2,4-oxadiazol-5-yl]chroman-4-one]: above 75%, above 75%, above 6.5 and above 5.
Turning to `Cn1nnc2cc(-c3noc(-c4ccccc4Br)n3)ccc21` [Compound 73, 5-(2-bromophenyl)-3-(1-methyl-1H-benzo[d][1,2,3]triazol-5-yl)-1,2,4-oxadiazole], the Emax in experiment [1] and in experiment [2] was below 75% throughout. For the same molecule, in experiment [1] (setting [3]), the “hS1P1 cAMP pEC50” value was below 6.5. For the same molecule, the “hS1P1 B-arrestin2 pEC50” value in experiment [2] (setting [4]) is above 5.
Turning to `Cc1ccc(-c2nc(-c3ccc4c(c3)nnn4C(C)C)no2)s1` [Compound 74, 5-[5-(5-methylthiophen-2-yl)-1,2,4-oxadiazol-3-yl]-1-(propan-2-yl)-1H-1,2,3-benzotriazole], the Emax in experiment [1] and in experiment [2] was below 75% in each case. The “hS1P1 cAMP pEC50” value in experiment [1] (setting [3]) is given as below 6.5. Further, in experiment [2] (setting [4]), the “hS1P1 B-arrestin2 pEC50” value is given as below 5.
Turning to `Cc1ccsc1-c1noc(-c2ccc3c(c2)nnn3CC(C)C)n1` [Compound 75, 1-(2-methylpropyl)-5-[3-(3-methylthiophen-2-yl)-1,2,4-oxadiazol-5-yl]-1H-1,2,3-benzotriazole], the Emax in experiment [1] is below 75%; in experiment [2], above 75%. Further, the “hS1P1 cAMP pEC50” value in experiment [1] (setting [3]) is above 6.5. Moreover, the “hS1P1 B-arrestin2 pEC50” value in experiment [2] (setting [4]) is on record as above 5.
Turning to `CCCn1nnc2cc(-c3nc(-c4cc(C)cc(C)c4)no3)ccc21` [Compound 76, 5-[3-(3,5-dimethylphenyl)-1,2,4-oxadiazol-5-yl]-1-propyl-1H-1,2,3-benzotriazole], the Emax in experiment [1] and in experiment [2] was below 75% throughout. In addition, the “hS1P1 cAMP pEC50” value in experiment [1] (setting [3]) was below 6.5. Further, the “hS1P1 B-arrestin2 pEC50” value in experiment [2] (setting [4]) is below 5.
As for `Cc1cc(-c2noc(-c3ccc4c(c3)nnn4C3CCCC3)n2)ccn1` [Compound 77], the Emax in experiment [1] and in experiment [2] was below 75% in each case.
On to `CC(C)n1nnc2cc(-c3noc(-c4cnccn4)n3)ccc21` [Compound 78, 3-(1-isopropyl-1H-benzo[d][1,2,3]triazol-5-yl)-5-(pyrazin-2-yl)-1,2,4-oxadiazole], for which the Emax in experiment [1] and in experiment [2] was below 75% each time. The “hS1P1 cAMP pEC50” value in experiment [1] (setting [3]) is reported as below 6.5. For the same molecule, the “hS1P1 B-arrestin2 pEC50” value in experiment [2] (setting [4]) is below 5.
Take `CC(C)n1nnc2cc(-c3nc(-c4ccccc4)no3)ccc21` [Compound 79, 5-(3-phenyl-1,2,4-oxadiazol-5-yl)-1-(propan-2-yl)-1H-1,2,3-benzotriazole]: the Emax in experiment [1] and in experiment [2] was above 75% throughout. The “hS1P1 cAMP pEC50” value in experiment [1] (setting [3]) is listed as above 6.5. Besides, in experiment [2] (setting [4]), the “hS1P1 B-arrestin2 pEC50” value is on record as above 5.
In the case of `FC(F)Oc1ccc(-c2noc(-c3ccc4c(c3)nnn4C3CCCC3)n2)cc1` [Compound 80, 1-cyclopentyl-5-{3-[4-(difluoromethoxy)phenyl]-1,2,4-oxadiazol-5-yl}-1H-1,2,3-benzotriazole], the Emax in experiment [1] and in experiment [2] was below 75% throughout. In addition, in experiment [1] (setting [3]), the “hS1P1 cAMP pEC50” value was above 6.5. Also, in experiment [2] (setting [4]), the “hS1P1 B-arrestin2 pEC50” value is below 5.
In the case of `COC(=O)Cn1nnc2cc(-c3noc(-c4ccccc4Br)n3)ccc21` [Compound 81, methyl 2-(5-(5-(2-bromophenyl)-1,2,4-oxadiazol-3-yl)-1H-benzo[d][1,2,3]triazol-1-yl)acetate], the Emax was above 75% in experiment [1] and below 75% in experiment [2]. Further, the EC50 in experiment [1] (inhibition of cAMP production, S1P1 CHO-K1 cells, read-out: hS1P1 cAMP pEC50 (converted)) is above 0.316 µM; in experiment [2] (β-arrestin2 recruitment, S1P1 CHO-K1 cells, read-out: hS1P1 B-arrestin2 pEC50 (converted)) it was above 10 µM.
As for `Clc1ccc(-c2noc(-c3ccc4c(c3)nnn4C3CCOCC3)n2)s1` [Compound 82, 5-[3-(5-chlorothiophen-2-yl)-1,2,4-oxadiazol-5-yl]-1-(oxan-4-yl)-1H-1,2,3-benzotriazole], the Emax in experiment [1] and in experiment [2] was below 75% each time. For the same molecule, the “hS1P1 cAMP pEC50” value in experiment [1] (setting [3]) is on record as below 6.5. Moreover, the “hS1P1 B-arrestin2 pEC50” value in experiment [2] (setting [4]) was below 5.
For the molecule `Brc1ccccc1-c1noc(-c2ccc3c(c2)nnn3C2CC2)n1` [Compound 83, 5-[3-(2-bromophenyl)-1,2,4-oxadiazol-5-yl]-1-cyclopropyl-1H-1,2,3-benzotriazole], the Emax in experiment [1] and in experiment [2] was above 75% each time. Further, the “hS1P1 cAMP pEC50” value in experiment [1] (setting [3]) is recorded as above 6.5. In experiment [2] (setting [4]), the “hS1P1 B-arrestin2 pEC50” value is above 5.
Regarding `FC(F)(F)Oc1ccccc1-c1nc(-c2ccc3c(c2)nnn3C2CCCC2)no1` [Compound 84, 3-(1-cyclopentyl-1H-benzo[d][1,2,3]triazol-5-yl)-5-(2-(trifluoromethoxy)phenyl)-1,2,4-oxadiazole], the results for the Emax in experiment [1] and in experiment [2] were below 75% and above 75%, respectively. The “hS1P1 cAMP pEC50” value in experiment [1] (setting [3]) is reported as below 6.5. Besides, the “hS1P1 B-arrestin2 pEC50” value in experiment [2] (setting [4]) is given as above 5.
The matching figures for `FC(F)(F)c1cc(-c2noc(-c3ccc4c(c3)nnn4C3CC3)n2)ccc1OCc1ccccc1` [Compound 85, 5-{3-[4-(benzyloxy)-3-(trifluoromethyl)phenyl]-1,2,4-oxadiazol-5-yl}-1-cyclopropyl-1H-1,2,3-benzotriazole]: below 75%, below 75%, below 6.5 and below 5.
Take `Cc1cc(-c2nc(-c3ccc4c(c3)nnn4C(C)C)no2)ccn1` [Compound 86, 3-(1-isopropyl-1H-benzo[d][1,2,3]triazol-5-yl)-5-(2-methylpyridin-4-yl)-1,2,4-oxadiazole]: the figures for the Emax in experiment [1] and in experiment [2] were below 75% and above 75%, respectively. In experiment [1] (setting [3]), the “hS1P1 cAMP pEC50” value is on record as below 6.5. Besides, in experiment [2] (setting [4]), the “hS1P1 B-arrestin2 pEC50” value is below 5.
Consider `Cc1ccc(-c2noc(-c3ccc4c(c3)nnn4C3CC3)n2)cn1` [Compound 87, 1-cyclopropyl-5-[3-(6-methylpyridin-3-yl)-1,2,4-oxadiazol-5-yl]-1H-1,2,3-benzotriazole], for which the Emax in experiment [1] and in experiment [2] was below 75% each time. The “hS1P1 cAMP pEC50” value in experiment [1] (setting [3]) is below 6.5. Besides, the “hS1P1 B-arrestin2 pEC50” value in experiment [2] (setting [4]) is listed as below 5.
On to `CC(C)n1nnc2cc(-c3nc(Cc4ccccc4)no3)ccc21` [Compound 88, 5-(3-benzyl-1,2,4-oxadiazol-5-yl)-1-(propan-2-yl)-1H-1,2,3-benzotriazole], for which the Emax in experiment [1] and in experiment [2] was below 75% each time. Besides, in experiment [1] (setting [3]), the “hS1P1 cAMP pEC50” value was below 6.5. Further, in experiment [2] (setting [4]), the “hS1P1 B-arrestin2 pEC50” value is recorded as below 5.
As to `CC(C)n1nnc2cc(-c3noc(C4CCOCC4)n3)ccc21` [Compound 89, 5-[5-(oxan-4-yl)-1,2,4-oxadiazol-3-yl]-1-(propan-2-yl)-1H-1,2,3-benzotriazole], the Emax in experiment [1] and in experiment [2] was below 75% throughout. Besides, in experiment [1] (setting [3]), the “hS1P1 cAMP pEC50” value is recorded as below 6.5. Also, the “hS1P1 B-arrestin2 pEC50” value in experiment [2] (setting [4]) was below 5.
Regarding `COc1ccc(-c2nc(-c3ccc4c(c3)nnn4C(C)C)no2)c(C)c1` [Compound 90, 3-(1-isopropyl-1H-benzo[d][1,2,3]triazol-5-yl)-5-(4-methoxy-2-methylphenyl)-1,2,4-oxadiazole], the Emax in experiment [1] and in experiment [2] was above 75% in each case. Moreover, in experiment [1] (setting [3]), the “hS1P1 cAMP pEC50” value is on record as below 6.5. Besides, the “hS1P1 B-arrestin2 pEC50” value in experiment [2] (setting [4]) is above 5.
